“Also recorded” adds a separate entry of the source.
What was measured:
A549 = experiment: Proliferation assay, PKC inhibitor in combination with PKC activators, A549; assay type: cell-based; conditions: for effect on PKC activator-mediated proliferation inhibition: K101A with Go6976 (0.1 or 0.3 μM), GF109203X (0.3 or 1 μM), Enzastaurin (0.3 or 1 μM); for inhibition of K101A anti-proliferative effects: higher concentrations of inhibitor
Procedure: To assess if activation of different classes of PKC is required for anti-proliferation effect of PKC activators, Sotrastaurin, a PKC inhibitor targeting both conventional and novel classes of PKC, was tested in combination with PKC activators in the proliferation assays. Proliferation assay in lung cancer cell line A549 (FIG. 15) and in pancreatic cell line MiaPaCa-2 (FIG. 16) was performed as described in Example 1. […] Then, K101A or K102 was tested in 8- or 9-point titrations in the presence of DMSO or Sotrastaurin (0.1 μM or 1 μM). […] Thus, PKC activator-mediated anti-proliferation effects are dependent on activation of PKC isoforms from conventional, or novel, or both classes of PKCs.
To assess if PKC activation is required for anti-proliferation effect of PKC activators in cancer cell lines that are sensitive to these activators, a pan-PKC inhibitor Go6983, targeting classes of PKCs (conventional, novel, atypical, and PKCμ), was tested in combination with PKC activators in the proliferation assays. Proliferation assay in lung cancer cell line A549 (FIG. 17) and in pancreatic cell line MiaPaCa-2 (FIG. 18) was performed as described in Example 1. […] Then, K101A or K102 was tested in 8- or 9-point titrations in the presence of DMSO or Go6983 (0.1 μM or 1 μM). […] Thus, PKC activation is required for anti-proliferation effect of PKC activators.
Proliferation assay was performed as described in Example 1. […] Thus, PKC activator-mediated anti-proliferation effects appear mainly dependent on activation of novel PKC isoforms.

[1] = system: PKC isoforms and Erk1/2 in Mino and Namalwa cells; experiment: PKC inhibitor effect on K101A-mediated phosphorylation of PKCs and Erk1/2 in Mino and Namalwa cells; assay type: cell-based; conditions: for phosphorylation of PKCδ at Tyr311 induced by PKC inhibitor: inhibitor pre-treatment 30 minutes; for K101A-induced phosphorylation of PKCμ at Ser916 or Ser744/748, PKCδ at Thr505, and Erk: inhibitor pre-treatment 30 minutes (Go6983, Sotrastaurin 1 μM)
Procedure: Cell lysis, protein quantitation, and Western blot analysis were performed as described above in Example 2 and 4. […] Again, these PKC inhibitor studies indicate the anti-proliferative effects of the PKC activators appear to be positively associated with phosphorylation and activation of novel PKC isoforms and PKCγ, and negatively associated with the phosphorylation of PKCδ at Tyr311.

PKCα & β = conditions: cited from earlier work
Mino cells = experiment: Proliferation assay, PKC inhibitors in combination with PKC activators, Mino; assay type: cell-based; conditions: Sotrastaurin 0.3/1 μM, Go6983 0.1/1 μM, Go6976 0.3/1 μM, Enzastaurin 1/3 μM
Procedure: PKC inhibitor studies were performed as described in Example 8, 9, and 10. […] Thus, PKC activator-mediated anti-proliferation effects may be dependent on activation of PKC isoforms from the novel PKC class.

Namalwa cells = experiment: Proliferation assay, PKC inhibitors in combination with PKC activators, Namalwa; assay type: cell-based; conditions: Sotrastaurin 0.3/1 μM, Go6983 0.1/1 μM, Go6976 0.3/1 μM, Enzastaurin at very high concentration of 10 μM
Procedure: PKC inhibitor studies were performed as described in Example 15. […] Thus, PKC activator-mediated anti-proliferation effects may be dependent on activation of novel PKC isoforms.

[2] = system: PKC isoforms and Erk1/2 in A549 cells; experiment: PKC inhibitor effect on PKC activator-mediated phosphorylation of PKCs and Erk1/2, A549; assay type: cell-based; conditions: 30 minutes; for K101A- or K102-induced phosphorylation of PKCμ at Ser916 or Ser744/748, PKCδ at Thr505, and Erk / phosphorylation of PKCδ at Tyr311 induced by PKC inhibitor: inhibitor pre-treatment 1 μM
Procedure: To assay if PKC inhibitors have any effects on the PKC activator-mediated phosphorylation of PKCs, A549 cells were pre-treated with DMSO, PKC inhibitors Go6983 (0.3 μM or 1 μM) or Sotrastaurin (0.3 μM or 1 μM) for 30 minutes before adding PKC activators K101A (1 μM) or K102 (0.1 μM) for another 30 minutes (FIG. 22). Cell lysis, protein quantitation, and Western blot analysis were performed as described above in Example 2 and 4. […] Phosphorylation of PKCα/β at Thr638/641 was not affected by the inhibitors (FIG. 22A). […] These PKC inhibitor studies indicate that blocking phosphorylation and activation of various isoforms of PKC is correlated with inhibition of the anti-proliferative effects of the PKC activators.
Cell lysis, protein quantitation, and Western blot analysis were performed as described above in Example 2 and 4. […] These PKC inhibitor studies also indicate that phosphorylation and activation of novel PKC isoforms and PKCμ is required for the anti-proliferative effects of the PKC activators whereas phosphorylation of PKCδ at Tyr311 is correlated with inhibition of the anti-proliferative effects of PKC activators.

PKCα, β, & γ = conditions: cited from earlier work
MiaPaCa-2 = experiment: Proliferation assay, PKC inhibitor in combination with PKC activators, MiaPaCa-2; assay type: cell-based; conditions: Sotrastaurin 1 μM with K101A or K102
PKCε = PKCε (Homo sapiens, UniProt Q02156); conditions: cited from earlier work
[3] = inhibitor pre-treatment 0.3 μM or 1 μM

Chain of PKCε (Q02156 whole entry): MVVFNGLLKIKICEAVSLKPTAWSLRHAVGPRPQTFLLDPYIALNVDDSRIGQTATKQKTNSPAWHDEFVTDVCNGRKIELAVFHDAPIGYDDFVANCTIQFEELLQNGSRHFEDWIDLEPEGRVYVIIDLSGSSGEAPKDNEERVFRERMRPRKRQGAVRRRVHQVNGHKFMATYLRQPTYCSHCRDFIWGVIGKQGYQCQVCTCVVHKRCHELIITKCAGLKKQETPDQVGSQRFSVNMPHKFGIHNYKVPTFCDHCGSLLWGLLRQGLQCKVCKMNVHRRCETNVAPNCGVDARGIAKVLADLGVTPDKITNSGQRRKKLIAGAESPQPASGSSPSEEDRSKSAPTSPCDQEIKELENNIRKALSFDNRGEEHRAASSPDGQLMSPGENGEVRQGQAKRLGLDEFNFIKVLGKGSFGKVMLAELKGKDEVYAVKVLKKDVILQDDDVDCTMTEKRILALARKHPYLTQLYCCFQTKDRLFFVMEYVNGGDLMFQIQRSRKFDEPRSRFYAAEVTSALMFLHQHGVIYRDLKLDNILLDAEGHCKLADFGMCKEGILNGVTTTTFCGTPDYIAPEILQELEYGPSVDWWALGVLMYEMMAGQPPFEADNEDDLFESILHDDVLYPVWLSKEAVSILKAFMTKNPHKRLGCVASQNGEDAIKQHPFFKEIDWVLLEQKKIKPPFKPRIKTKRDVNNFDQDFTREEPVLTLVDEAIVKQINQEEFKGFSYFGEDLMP

For `Cn1c2ccccc2c2c3c(c4c5ccccc5n(CCC#N)c4c21)CNC3=O` [Go6976], the “effect on PKC activator-mediated proliferation inhibition” value (A549) was “minimal effects; also recorded: no inhibition”, the “phosphorylation of PKCδ at Tyr311 induced by PKC inhibitor” value [1] was “did not induce phosphorylation” and the “K101A-induced phosphorylation of PKCμ at Ser916 or Ser744/748, PKCδ at Thr505, and Erk” value [1] was “little effect”. For the same compound, the Ki (PKCα & β) was 2.3 to 6.2 nM, the “effect on PKC activator-mediated anti-proliferation effects” value (Mino cells) was “did not block” and the “effect on PKC activator-mediated anti-proliferation effects” value (Namalwa cells) was “did not block”. The “K101A- or K102-induced phosphorylation of PKCμ at Ser916 or Ser744/748, PKCδ at Thr505, and Erk” value [2] was “minimal effects” and the “phosphorylation of PKCδ at Tyr311 induced by PKC inhibitor” value [2] was “induced no phosphorylation of PKCδ at Tyr311”.

For `CN(C)CCCn1cc(C2=C(c3c[nH]c4ccccc34)C(=O)NC2=O)c2ccccc21` [GF109203X], the “effect on PKC activator-mediated proliferation inhibition” value (A549) is listed as “minimal effects; also recorded: weak inhibition”, the “inhibition of K101A anti-proliferative effects” value (A549) is listed as “Slight inhibition” and the Ki (PKCα, β, & γ) is listed as roughly 20 nM. For the same compound, the “K101A- or K102-induced phosphorylation of PKCμ at Ser916 or Ser744/748, PKCδ at Thr505, and Erk” value [2] was “minimal effects” and the “phosphorylation of PKCδ at Tyr311 induced by PKC inhibitor” value [2] was “induced phosphorylation of PKCδ at Tyr311 partially”.

With `CN1CCN(c2nc(C3=C(c4c[nH]c5ccccc45)C(=O)NC3=O)c3ccccc3n2)CC1` [Sotrastaurin] the “effect on PKC activator-mediated anti-proliferation effects” value (MiaPaCa-2) was “completely abolished”, the “effect on PKC activator-mediated anti-proliferation effects” value (A549; Sotrastaurin 1 μM with K101A or K102) was “completely abolished” and the “phosphorylation of PKCδ at Tyr311 induced by PKC inhibitor” value [1] was “induced robust phosphorylation”. For the same compound, the “K101A-induced phosphorylation of PKCμ at Ser916 or Ser744/748, PKCδ at Thr505, and Erk” value [1] was “completely abolished”, the “effect on PKC activator-mediated anti-proliferation effects” value (Mino cells) was “dose-dependently blocked” and the “effect on PKC activator-mediated anti-proliferation effects” value (Namalwa cells) was “dose-dependently blocked”. The “K101A- and K102-induced phosphorylation of Erk1/2” value [2, 3] was “blocked dose-dependently”, the “K101A- or K102-induced phosphorylation, P-PKCμ (Ser916), P-PKCμ (Ser744/748), P-PKCδ (Thr505)” value [2, 3] was “blocked in a dose-dependent manner” and the “Phosphorylation of PKCα/β at Thr638/641” value [2, 3] was “not affected”. The “K101A- or K102-induced phosphorylation of PKCμ at Ser916 or Ser744/748, PKCδ at Thr505, and Erk” value [2] was “completely abolished” and the “phosphorylation of PKCδ at Tyr311 induced by PKC inhibitor” value [2] was “induced phosphorylation of PKCδ at Tyr311”.

For `Cn1cc(C2=C(c3cn(C4CCN(Cc5ccccn5)CC4)c4ccccc34)C(=O)NC2=O)c2ccccc21` [Enzastaurin], the “effect on PKC activator-mediated proliferation inhibition” value (A549) is listed as “minimal effects; also recorded: weak inhibition”, the “inhibition of K101A anti-proliferative effects” value (A549) is listed as “Slight inhibition” and the Ki (PKCε) is listed as 110 nM. For the same compound, the “phosphorylation of PKCδ at Tyr311 induced by PKC inhibitor” value [1] was “induced moderate phosphorylation”, the “effect on PKC activator-mediated anti-proliferation effects” value (Mino cells) was “partially blocked” and the “effect on PKC activator-mediated anti-proliferation effects” value (Namalwa cells) was “marginally blocked”. For the same compound, the “K101A- or K102-induced phosphorylation of PKCμ at Ser916 or Ser744/748, PKCδ at Thr505, and Erk” value [2] was “minimal effects” and the “phosphorylation of PKCδ at Tyr311 induced by PKC inhibitor” value [2] was “induced phosphorylation of PKCδ at Tyr311 partially”.

Reference: patent publication US12502369B2, “Methods of cancer treatment” (K-GEN, INC., priority 2015, dated 2025)
